Experiment [1] deals with T1, human adenosine A1 receptor (Homo sapiens, UniProt P30542).
T1 construct: expressed in transfected cells; host or cells: HEK293 cells infected with BacMam (the same paragraph also labels the preparation CHO-hA1)
T1 sequence (P30542 1-326): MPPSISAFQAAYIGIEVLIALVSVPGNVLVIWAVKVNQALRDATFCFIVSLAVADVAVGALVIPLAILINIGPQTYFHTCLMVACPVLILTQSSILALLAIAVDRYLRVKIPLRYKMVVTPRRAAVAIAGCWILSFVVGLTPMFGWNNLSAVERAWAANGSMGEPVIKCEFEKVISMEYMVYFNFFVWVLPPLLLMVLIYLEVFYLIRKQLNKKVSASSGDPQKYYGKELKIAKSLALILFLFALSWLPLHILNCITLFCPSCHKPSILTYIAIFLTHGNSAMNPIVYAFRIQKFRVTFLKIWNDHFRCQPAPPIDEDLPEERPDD
Put plainly: Inhibition binding assay, human adenosine A1 receptor membranes, [3H]DPCPX. The following applies: 1 nM [3H]DPCPX, 25° C., 1 h; IC50 converted to Ki with Cheng-Prusoff; read-out: A1 pKi (converted). The method, boiled down:
(§1)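 Membranes from BacMam-infected HEK293 cells (0.2 μg A2A, 1.4 μg A1) incubated 1 h at 25° C with test compound and 1 nM [3H]ZM241385 (A2A; 50 mM Tris-HCl pH 7.4) or [3H]DPCPX (A1; plus 100 mM NaCl, 10 mM MgCl2). Nonspecific: 1 μM CGS15943 or DPCPX. Filtration, scintillation; IC50 converted to Ki via Cheng-Prusoff.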

Experiment [2] addresses T2, human adenosine A2A receptor (Homo sapiens, UniProt P29274).
T2 construct: expressed in transfected cells; host or cells: HEK293 cells infected with BacMam
Put plainly: Inhibition binding assay, human adenosine A2A receptor membranes, [3H]ZM241385. The settings on record: 1 nM [3H]ZM241385, HEK293-hA2A membranes, 25° C., 1 h; IC50 converted to Ki with Cheng-Prusoff; read-out: A2A pKi (converted). The method, boiled down: as §1

T2 sequence (P29274 whole entry): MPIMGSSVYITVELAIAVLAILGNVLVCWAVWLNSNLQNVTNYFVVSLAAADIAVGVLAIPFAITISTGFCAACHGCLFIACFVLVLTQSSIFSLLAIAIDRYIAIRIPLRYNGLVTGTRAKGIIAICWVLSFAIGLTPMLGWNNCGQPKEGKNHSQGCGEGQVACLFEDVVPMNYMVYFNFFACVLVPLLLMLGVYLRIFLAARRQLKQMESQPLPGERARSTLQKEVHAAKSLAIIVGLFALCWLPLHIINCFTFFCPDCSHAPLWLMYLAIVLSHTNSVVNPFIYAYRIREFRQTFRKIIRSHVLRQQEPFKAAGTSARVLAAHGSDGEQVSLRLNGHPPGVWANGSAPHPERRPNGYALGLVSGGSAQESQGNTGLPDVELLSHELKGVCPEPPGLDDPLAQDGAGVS

For `Cc1cc(-c2c(-c3ccccc3)nc(N)n3c(=O)n(CC(CO)CO)nc23)cc(C)n1` [Example 2-24, 5-amino-8-(2,6-dimethyl-4-pyridyl)-2-[3-hydroxy-2-(hydroxymethyl)propyl]-7-phenyl-[1,2,4]triazolo[4,3-c]pyrimidin-3-one], the values for the Ki in experiment [1] and in experiment [2] were 794 nM and 10 nM, respectively.
As to `CCC1(C)CC1Cn1nc2c(-c3cc(C)nc(C)c3)c(-c3ccccc3)nc(N)n2c1=O` (stereo not shown) [Example 2-27, 5-amino-8-(2,6-dimethyl-4-pyridyl)-2-[(2-ethyl-2-methyl-cyclopropyl)methyl]-7-phenyl-[1,2,4]triazolo[4,3-c]pyrimidin-3-one], the Ki in experiment [1] was 31.6 nM; in experiment [2] it was 0.631 nM.
As for `Cc1cc(-c2c(-c3ccccc3)nc(N)n3c(=O)n(CC(=O)N(C)C4CC4)nc23)cc(C)n1` [Example 2-28, 2-[5-amino-8-(2,6-dimethyl-4-pyridyl)-3-oxo-7-phenyl-[1,2,4]triazolo[4,3-c]pyrimidin-2-yl]-N-cyclopropyl-N-methyl-acetamide], the results for the Ki in experiment [1] and in experiment [2] were 200 nM and 1.58 nM, respectively.
The corresponding values for `COC(=O)C1(Cn2nc3c(-c4cc(C)nc(C)c4)c(-c4ccccc4)nc(N)n3c2=O)CCCC1` [Example 2-29, methyll-[[5-amino-8-(2,6-dimethyl-4-pyridyl)-3-oxo-7-phenyl-[1,2,4]triazolo[4,3-c]pyrimidin-2-yl]methyl]cyclopentanecarboxylate] are 126 nM and 0.501 nM.
The corresponding values for `[2H]c1c([2H])c([2H])c(-c2nc(N)n3c(=O)n(CCC(F)(F)F)nc3c2-c2cc(C)nc(C)c2)c([2H])c1[2H]` [Example 2-32, 5-amino-8-(2,6-dimethyl-4-pyridyl)-7-(2,3,4,5,6-pentadeuteriophenyl)-2-(3,3,3-trifluoropropyl)-[1,2,4]triazolo[4,3-c]pyrimidin-3-one] are 398 nM and 0.501 nM.
Take `Cc1cc(-c2c(-c3ccc(F)cc3)nc(N)n3c(=O)n(CCC(F)(F)F)nc23)cc(C)n1` [Example 2-33, 5-amino-8-(2,6-dimethyl-4-pyridyl)-7-(4-fluorophenyl)-2-(3,3,3-trifluoropropyl)-[1,2,4]triazolo[4,3-c]pyrimidin-3-one]: the Ki was 631 nM in experiment [1] and 1.26 nM in experiment [2].
Turning to `Cc1cc(-c2c(-c3ccc(F)cc3F)nc(N)n3c(=O)n(CCC(F)(F)F)nc23)cc(C)n1` [Example 2-34, 5-amino-7-(2,4-difluorophenyl)-8-(2,6-dimethyl-4-pyridyl)-2-(3,3,3-trifluoropropyl)-[1,2,4]triazolo[4,3-c]pyrimidin-3-one], the Ki in experiment [1] is > 3980 nM; in experiment [2], 15.8 nM.
Take `Cc1cc(-c2c(-c3ccc(C#N)cc3)nc(N)n3c(=O)n(CCC(F)(F)F)nc23)cc(C)n1` [Example 2-36, 4-[5-amino-8-(2,6-dimethyl-4-pyridyl)-3-oxo-2-(3,3,3-trifluoropropyl)-[1,2,4]triazolo[4,3-c]pyrimidin-7-yl]benzonitrile]: the Ki in experiment [1] is > 3160 nM; in experiment [2], 20 nM.
For the compound `Cc1cc(-c2c(-c3ccncc3)nc(N)n3c(=O)n(CCC(F)(F)F)nc23)cc(C)n1` [Example 2-38, 5-amino-8-(2,6-dimethyl-4-pyridyl)-7-(4-pyridyl)-2-(3,3,3-trifluoropropyl)-[1,2,4]triazolo[4,3-c]pyrimidin-3-one], the Ki in experiment [1] is > 3980 nM; in experiment [2] it was 39.8 nM.
Turning to `Cc1cc(-c2c(-c3cccnc3)nc(N)n3c(=O)n(CCC(F)(F)F)nc23)cc(C)n1` [Example 2-39, 5-amino-8-(2,6-dimethyl-4-pyridyl)-7-(3-pyridyl)-2-(3,3,3-trifluoropropyl)-[1,2,4]triazolo[4,3-c]pyrimidin-3-one], the Ki was > 3980 nM in experiment [1] and 50.1 nM in experiment [2].
Regarding `Cc1cc(-c2c(-c3ccc(C)o3)nc(N)n3c(=O)n(CCC(F)(F)F)nc23)cc(C)n1` [Example 2-43, 5-amino-8-(2,6-dimethyl-4-pyridyl)-7-(5-methyl-2-furyl)-2-(3,3,3-trifluoropropyl)-[1,2,4]triazolo[4,3-c]pyrimidin-3-one], the Ki is 501 nM in experiment [1] and 2 nM in experiment [2].
Taken in the same sequence, the figures for `Nc1nc(-c2ccccc2)c(-c2cc(Cl)nc(CO)c2)c2nn(CCC(F)(F)F)c(=O)n12` [Example 2-45, 5-amino-8-[2-chloro-6-(hydroxymethyl)-4-pyridyl]-7-phenyl-2-(3,3,3-trifluoropropyl)-[1,2,4]triazolo[4,3-c]pyrimidin-3-one] were 316 nM and 0.251 nM.
Take `COc1cc(-c2c(-c3ccc(F)cc3)nc(N)n3c(=O)n(CCC(F)(F)F)nc23)cc(CO)n1` [Example 2-47, 5-amino-7-(4-fluorophenyl)-8-[2-(hydroxymethyl)-6-methoxy-4-pyridyl]-2-(3,3,3-trifluoropropyl)-[1,2,4]triazolo[4,3-c]pyrimidin-3-one]: the Ki in experiment [1] is > 3980 nM; in experiment [2] it was 1.58 nM.
Taken in the same sequence, the figures for `Cc1cc(-c2c(-c3ccccc3)nc(N)n3c(=O)n(CCC(F)(F)F)nc23)cc(Cl)n1` [Example 2-48, 5-amino-8-(2-chloro-6-methyl-4-pyridyl)-7-phenyl-2-(3,3,3-trifluoropropyl)-[1,2,4]triazolo[4,3-c]pyrimidin-3-one] were 6.31 nM and 0.794 nM.
Take `Cc1cc(-c2c(-c3ccc(F)cc3)nc(N)n3c(=O)n(C)nc23)cc(Cl)n1` [Example 2-49, 5-amino-8-(2-chloro-6-methyl-4-pyridyl)-7-(4-fluorophenyl)-2-methyl-[1,2,4]triazolo[4,3-c]pyrimidin-3-one]: the Ki in experiment [1] is 501 nM; in experiment [2], 39.8 nM.
Regarding `Cc1cc(-c2c(-c3ccc(F)cc3)nc(N)n3c(=O)n(CCC(F)(F)F)nc23)cc(Cl)n1` [Example 2-50, 5-amino-8-(2-chloro-6-methyl-4-pyridyl)-7-(4-fluorophenyl)-2-(3,3,3-trifluoropropyl)-[1,2,4]triazolo[4,3-c]pyrimidin-3-one], the Ki is 79.4 nM in experiment [1] and 0.794 nM in experiment [2].
As for `COC(=O)c1cc(-c2c(-c3ccccc3)nc(N)n3c(=O)n(CCC(F)(F)F)nc23)cc(C)n1` [Example 2-52, methyl 4-[5-amino-3-oxo-7-phenyl-2-(3,3,3-trifluoropropyl)-[1,2,4]triazolo[4,3-c]pyrimidin-8-yl]-6-methyl-pyridine-2-carboxylate], the Ki in experiment [1] was 200 nM; in experiment [2] it was 0.631 nM.
With `Cc1cc(-c2c(-c3ccccc3)nc(N)n3c(=O)n(C4CCCNC4)nc23)cc(C)n1` (stereo not shown) [Example 2-55, 5-amino-8-(2,6-dimethyl-4-pyridyl)-7-phenyl-2-(3-piperidyl)-[1,2,4]triazolo[4,3-c]pyrimidin-3-one], the Ki in experiment [1] was > 3160 nM; in experiment [2], 251 nM.
Taken in the same sequence, the figures for `Cc1cc(-c2c(-c3ccc(F)cc3)nc(N)n3c(=O)n(CCC(F)(F)F)nc23)cc(C)[n+]1[O-]` [Example 2-58, 5-amino-8-(2,6-dimethyl-1-oxido-pyridin-1-ium-4-yl)-7-(4-fluorophenyl)-2-(3,3,3-trifluoropropyl)-[1,2,4]triazolo[4,3-c]pyrimidin-3-one] were 1000 nM and 50.1 nM.
For `Cc1cc(-c2c(-c3ccccc3)nc(N)n3c(=O)n(CC45CC(F)(C4)C5)nc23)cc(CO)n1` [Example 2-59, 5-amino-2-[(3-fluoro-1-bicyclo[1.1.1]pentanyl)methyl]-8-[2-(hydroxymethyl)-6-methyl-4-pyridyl]-7-phenyl-[1,2,4]triazolo[4,3-c]pyrimidin-3-one], the values for the Ki in experiment [1] and in experiment [2] were 316 nM and 3.98 nM, respectively.
Consider `[2H]c1c([2H])c([2H])c(-c2nc(N)n3c(=O)n(CCC(F)(F)F)nc3c2-c2cc(C)nc(CO)c2)c([2H])c1[2H]` [Example 2-61, 5-amino-8-[2-(hydroxymethyl)-6-methyl-4-pyridyl]-7-(2,3,4,5,6-pentadeuteriophenyl)-2-(3,3,3-trifluoropropyl)-[1,2,4]triazolo[4,3-c]pyrimidin-3-one], for which the Ki in experiment [1] was 631 nM; in experiment [2] it was 1.26 nM.
On to `Cc1cc(-c2c(-c3ccccc3)nc(N)n3c(=O)n(CC45C6C7C8C6C4C8C75)nc23)cc(CO)n1` (stereo not shown) [Example 2-62, 5-amino-2-(cuban-1-ylmethyl)-8-[2-(hydroxymethyl)-6-methyl-4-pyridyl]-7-phenyl-[1,2,4]triazolo[4,3-c]pyrimidin-3-one], for which the Ki is 31.6 nM in experiment [1] and 0.316 nM in experiment [2].
Turning to `Cc1cc(-c2c(-c3ccccc3)nc(N)n3c(=O)n(CC45CC(C4)C5)nc23)cc(CO)n1` [Example 2-63, 5-amino-2-(3-bicyclo[1.1.1]pentanylmethyl)-8-[2-(hydroxymethyl)-6-methyl-4-pyridyl]-7-phenyl-[1,2,4]triazolo[4,3-c]pyrimidin-3-one], the figures for the Ki in experiment [1] and in experiment [2] were 316 nM and 1.26 nM, respectively.

Source of the values: patent US12528815B2, “5-amino-8-(4-pyridyl)-[1,2,4]triazolo[4,3-c]pyrimidin-3-one compounds for use against cancer” (Nxera Pharma UK Limited, priority 2020, dated 2026).
